Key:
FGFR2 = molecular target: T1, FGFR2 (Homo sapiens, UniProt P21802); test: Kinase binding assay (kinase-tagged T7 phage, affinity beads, qPCR), Kd; conditions: read-out: FGFR2 (Kd nM)
T1 construct: made in house; host or cells: E. coli (BL21-derived), T7 phage
In short: (§1)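 First, phage lysates carrying tagged kinase are made in E. coli at 32° C. Next, they are combined with blocked biotin-ligand streptavidin beads and compound at 0.9% final DMSO. Finally, eluted kinase is measured by qPCR and Kd is fitted with the Hill equation.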

FGFR3 (V555M) = molecular target: T2, FGFR3 (V555M) (Homo sapiens, UniProt P22607, V555M); test: as above; conditions: V555M mutant; read-out: FGFR3 (V555M) (Kd nM)
T2 construct: made in house; host or cells: E. coli (BL21-derived), T7 phage
In short: as §1

FGFR4 = molecular target: T3, FGFR4 (Homo sapiens, UniProt P22455); test: as above; conditions: read-out: FGFR4 (Kd nM)
T3 construct: made in house; host or cells: E. coli (BL21-derived), T7 phage
In short: as §1

FGFR3 = molecular target: T4, FGFR3 (Homo sapiens, UniProt P22607); test: as above; conditions: read-out: FGFR3 (Kd nM)
T4 construct: made in house; host or cells: E. coli (BL21-derived), T7 phage
In short: as §1

FGFR1 = molecular target: T5, FGFR1 (Homo sapiens, UniProt P11362); test: as above; conditions: read-out: FGFR1 (Kd nM)
T5 construct: made in house; host or cells: E. coli (BL21-derived), T7 phage
In short: as §1

[1] = test system: KG-1 cell line (FGFR 1-fusion); test: Cancer cell line cell viability assay (Cell Titer-Glo), 72 hr; assay type: cell-based; conditions: Homo sapiens, KG-1, KG-1 cell line (FGFR1-fusion)
Excerpt: (§2) Experimental Purpose: To detect the change of intracellular ATP by Cell Titer-Glo® and to evaluate the inhibitory effect of the compounds on cancer cell lines by determining the in vitro IC50 value of the compounds.
(§3) Cell Titer-Glo® 2.0 Luminescent cell viability assay reagent was purchased from Promega (Madison, WI). KG-1, KATO-III, and MDA-MB-453 cell lines were purchased from American Type Culture Collection (Manassas, VA). RT112/84 cell line was purchased from Millipore-Sigma (St. Louis, MO). HuH7 cells were purchased from Seikisui Xenotech (Kansas City, KS). RT112/84 and MDA-MB-453 cells were cultured in RPMI1640 media supplemented with 10% fetal bovine serum. KG-1 and KATO-III cell lines were cultured in IMDM media supplemented with 20% FBS. HuH7 cells were cultured in IMDM media supplemented with 10% FBS. Cultures were maintained at 37° C. in a humidified atmosphere of 5% CO2 and 95% air.
(§4) Cell Viability Assay Procedure: Cells were plated in 96-well clear bottom/white plates (Corning #3903) at a range of densities depending on the optimal assay window (5,000-20,000 cells/well in […] of media), incubated overnight. The next day, test compound DMSO stock solutions were made at 10 mM and […] final concentration. Compounds were then added to cells in a 9-dose, 4-fold dilution series starting at 3 μM with an HP 300e Digital Dispenser (each dose was applied in triplicate). DMSO was backfilled to each well up to 301 nL total volume of test compound+DMSO, and a total of 301 nL DMSO was added to a control/no test compound well in triplicate. The cells in cell culture plates were incubated with the compounds at 37° C. and 5% CO2 for 72 hours-120 hours depending on the cell line. Then 50 μl of Cell Titer Glo 2.0 reagent was added to each well of the cell culture plates. The contents were covered from light and mixed on an orbital shaker at room temperature for minimum of 10 min. Luminescence was recorded by a Clariostar Plus Microplate Reader (BMG Labtech, Cary, NC). Cells were assessed as a percentage of DMSO only treated control cells. Curves were plotted and IC50 values were calculated using the GraphPad Prism 9 program based on a sigmoidal dose-response equation (log (inhibitor) vs. response—Variable slope, 4-parameter).

[2] = test system: KATO-III cell line (FGFR2 amplification); test: as above; assay type: cell-based; conditions: Homo sapiens, KATO III
Excerpt: as §2, §3, §4

[3] = test system: RT112/84 cell line (FGFR3-fusion); test: as above; assay type: cell-based; conditions: Homo sapiens, RT112/84, RT112/84 cell line (FGFR3-fusion)
Excerpt: as §2, §3, §4

T4 sequence (P22607 23-806): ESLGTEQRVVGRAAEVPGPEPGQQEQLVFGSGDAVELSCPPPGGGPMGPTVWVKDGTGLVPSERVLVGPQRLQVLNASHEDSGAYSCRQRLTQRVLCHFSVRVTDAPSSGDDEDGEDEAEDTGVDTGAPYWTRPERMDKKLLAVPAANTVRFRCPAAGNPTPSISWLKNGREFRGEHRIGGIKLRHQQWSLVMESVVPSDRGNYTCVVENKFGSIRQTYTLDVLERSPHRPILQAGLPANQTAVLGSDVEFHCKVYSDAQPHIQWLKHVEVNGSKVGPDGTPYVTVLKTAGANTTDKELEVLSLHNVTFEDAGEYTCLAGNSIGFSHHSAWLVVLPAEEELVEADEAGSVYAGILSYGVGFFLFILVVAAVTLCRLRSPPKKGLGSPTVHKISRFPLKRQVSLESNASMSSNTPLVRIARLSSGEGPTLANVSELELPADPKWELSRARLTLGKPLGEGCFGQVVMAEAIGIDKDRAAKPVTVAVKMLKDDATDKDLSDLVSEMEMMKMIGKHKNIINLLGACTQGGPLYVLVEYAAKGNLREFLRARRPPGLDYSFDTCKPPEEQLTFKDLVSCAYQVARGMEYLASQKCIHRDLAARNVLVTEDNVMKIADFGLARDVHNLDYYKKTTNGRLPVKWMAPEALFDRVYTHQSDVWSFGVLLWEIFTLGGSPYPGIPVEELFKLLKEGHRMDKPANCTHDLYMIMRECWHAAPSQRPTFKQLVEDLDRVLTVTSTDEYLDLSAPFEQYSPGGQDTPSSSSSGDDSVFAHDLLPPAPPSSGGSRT
T2 sequence (P22607 23-806 V555M): as the sequence (P22607 23-806) above, with V533M counted along it
T1 sequence (P21802 22-821): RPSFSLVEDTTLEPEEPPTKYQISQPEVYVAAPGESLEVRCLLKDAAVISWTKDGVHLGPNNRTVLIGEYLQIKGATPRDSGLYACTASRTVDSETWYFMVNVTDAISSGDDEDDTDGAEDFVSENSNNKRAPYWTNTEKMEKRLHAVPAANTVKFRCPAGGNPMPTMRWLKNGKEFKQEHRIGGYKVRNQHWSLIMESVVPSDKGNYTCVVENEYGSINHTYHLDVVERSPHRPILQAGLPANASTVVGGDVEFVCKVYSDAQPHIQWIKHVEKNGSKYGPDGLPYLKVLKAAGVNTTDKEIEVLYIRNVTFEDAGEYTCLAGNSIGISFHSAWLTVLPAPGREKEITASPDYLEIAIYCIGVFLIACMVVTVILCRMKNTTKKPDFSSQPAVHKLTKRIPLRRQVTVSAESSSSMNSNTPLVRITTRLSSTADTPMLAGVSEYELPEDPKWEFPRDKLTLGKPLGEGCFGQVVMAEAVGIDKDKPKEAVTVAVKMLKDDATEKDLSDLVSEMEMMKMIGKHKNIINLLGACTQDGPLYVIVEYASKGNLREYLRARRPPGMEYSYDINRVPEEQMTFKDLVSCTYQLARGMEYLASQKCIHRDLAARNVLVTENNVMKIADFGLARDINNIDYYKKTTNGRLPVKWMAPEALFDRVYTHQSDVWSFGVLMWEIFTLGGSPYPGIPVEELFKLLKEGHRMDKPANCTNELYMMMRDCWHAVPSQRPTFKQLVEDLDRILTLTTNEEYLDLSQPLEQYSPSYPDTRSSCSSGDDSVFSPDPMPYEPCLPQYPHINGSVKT
T5 sequence (P11362 22-822): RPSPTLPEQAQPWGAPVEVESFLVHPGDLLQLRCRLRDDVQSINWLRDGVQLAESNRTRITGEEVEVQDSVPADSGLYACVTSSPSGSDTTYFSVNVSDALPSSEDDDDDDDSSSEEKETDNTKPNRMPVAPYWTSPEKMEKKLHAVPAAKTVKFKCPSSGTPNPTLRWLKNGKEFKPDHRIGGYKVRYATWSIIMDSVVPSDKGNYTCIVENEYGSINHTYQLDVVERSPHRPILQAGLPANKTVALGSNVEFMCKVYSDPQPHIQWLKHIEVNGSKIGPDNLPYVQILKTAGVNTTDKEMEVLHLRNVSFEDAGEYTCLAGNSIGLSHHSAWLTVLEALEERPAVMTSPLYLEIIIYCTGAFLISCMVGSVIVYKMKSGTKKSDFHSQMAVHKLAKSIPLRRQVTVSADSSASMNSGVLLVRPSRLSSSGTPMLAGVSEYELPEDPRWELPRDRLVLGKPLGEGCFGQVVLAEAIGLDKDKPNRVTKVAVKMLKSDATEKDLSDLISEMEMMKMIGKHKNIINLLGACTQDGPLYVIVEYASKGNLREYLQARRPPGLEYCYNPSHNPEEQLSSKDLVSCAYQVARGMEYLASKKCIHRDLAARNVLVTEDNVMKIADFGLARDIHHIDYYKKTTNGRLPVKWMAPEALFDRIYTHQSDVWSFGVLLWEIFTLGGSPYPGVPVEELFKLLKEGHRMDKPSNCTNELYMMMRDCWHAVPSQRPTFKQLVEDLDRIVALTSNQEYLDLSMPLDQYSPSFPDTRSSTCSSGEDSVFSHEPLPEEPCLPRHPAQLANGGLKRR
T3 sequence (P22455 22-802): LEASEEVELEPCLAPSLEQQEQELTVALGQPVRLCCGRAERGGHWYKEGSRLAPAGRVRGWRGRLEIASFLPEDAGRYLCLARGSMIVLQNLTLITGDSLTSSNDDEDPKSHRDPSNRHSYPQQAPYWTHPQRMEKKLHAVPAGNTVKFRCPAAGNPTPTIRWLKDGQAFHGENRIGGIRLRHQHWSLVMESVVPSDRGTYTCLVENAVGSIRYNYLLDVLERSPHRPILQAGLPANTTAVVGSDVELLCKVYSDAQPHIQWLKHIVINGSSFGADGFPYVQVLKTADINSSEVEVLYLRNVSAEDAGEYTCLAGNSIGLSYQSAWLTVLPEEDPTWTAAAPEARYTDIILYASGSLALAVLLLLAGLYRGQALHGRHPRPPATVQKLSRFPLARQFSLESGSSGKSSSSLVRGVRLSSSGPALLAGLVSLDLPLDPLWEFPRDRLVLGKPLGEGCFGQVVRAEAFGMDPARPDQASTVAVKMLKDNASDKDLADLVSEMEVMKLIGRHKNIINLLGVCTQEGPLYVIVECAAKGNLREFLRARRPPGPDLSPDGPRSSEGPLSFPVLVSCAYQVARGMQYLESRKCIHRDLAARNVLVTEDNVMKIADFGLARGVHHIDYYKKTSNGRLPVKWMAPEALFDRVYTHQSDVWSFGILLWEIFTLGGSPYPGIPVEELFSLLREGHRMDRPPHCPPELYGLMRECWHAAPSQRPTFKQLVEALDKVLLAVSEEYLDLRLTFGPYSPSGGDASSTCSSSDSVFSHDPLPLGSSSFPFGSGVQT

Structure (SMILES) | Kd (FGFR2) | Kd (FGFR3 (V555M)) | Kd (FGFR4) | Kd (FGFR3) | Kd (FGFR1) | IC50 [1] | IC50 [2] | IC50 [3]
CNC1(C)CN(c2ccc(-c3n[nH]c4cc(F)c(O[C@H](C)c5c(Cl)cncc5Cl)cc34)cn2)C1 [Example 59, 1-[5-[5-[(1R)-1-(3,5-dichloro-4-pyridyl)ethoxy]-6-fluoro-1H-indazol-3-yl]-2-pyridyl]-N,3-dimethyl-azetidin-3-amine] | 1 to 50 nM | 1 to 50 nM | 1 to 50 nM | 1 to 50 nM | 1 to 50 nM | 200 to 1000 nM | 200 to 1000 nM | 0.1 to 50 nM
C[C@@H](Oc1cc2c(-c3cnc(N4CC5(CC5)C4)nc3)n[nH]c2cc1F)c1c(Cl)cncc1Cl [Example 60, 3-[2-(5-azaspiro[2.3]hexan-5-yl)pyrimidin-5-yl]-5-[(1R)-1-(3,5-dichloro-4-pyridyl)ethoxy]-6-fluoro-1H-indazole] | 300 to 1000 nM | 1 to 50 nM | 1 to 50 nM | 1 to 50 nM | 50 to 300 nM | > 1000 nM | > 1000 nM | 50 to 200 nM
C[C@@H](Oc1ccc2[nH]nc(-c3ccc(N4CC(C)(NC5CCC5)C4)nc3)c2c1)c1c(Cl)cncc1Cl [Example 63, (R)-N-cyclobutyl-1-(5-(5-(1-(3,5-dichloropyridin-4-yl)ethoxy)-1H-indazol-3-yl)pyridin-2-yl)-3-methylazetidin-3-amine] | 1 to 50 nM | 1 to 50 nM | 1 to 50 nM | 1 to 50 nM | 1 to 50 nM | 50 to 200 nM | 0.1 to 50 nM | 0.1 to 50 nM
C[C@@H](Oc1ccc2[nH]nc(-c3ccc(N4CC(C)(NC5COC5)C4)nc3)c2c1)c1c(Cl)cncc1Cl [Example 64, (R)-1-(5-(5-(1-(3,5-dichloropyridin-4-yl)ethoxy)-1H-indazol-3-yl)pyridin-2-yl)-3-methyl-N-(oxetan-3-yl)azetidin-3-amine] | 1 to 50 nM | 1 to 50 nM | 1 to 50 nM | 1 to 50 nM | 1 to 50 nM | 0.1 to 50 nM | 0.1 to 50 nM | 0.1 to 50 nM
COc1cc2[nH]nc(-c3ccc(N4CC(C)(N[C@H]5CCOC5)C4)nc3)c2cc1O[C@H](C)c1c(Cl)cncc1Cl [Example 66, 1-(5-(5-((R)-1-(3,5-dichloropyridin-4-yl)ethoxy)-6-methoxy-1H-indazol-3-yl)pyridin-2-yl)-3-methyl-N-((S)-tetrahydrofuran-3-yl)azetidin-3-amine] | 1 to 50 nM | 1 to 50 nM | 1 to 50 nM | 1 to 50 nM | 1 to 50 nM | 0.1 to 50 nM | 0.1 to 50 nM | 0.1 to 50 nM
C[C@@H](Oc1cc2c(-c3ccc(N4CC(C)(CP(C)(C)=O)C4)nc3)n[nH]c2cc1F)c1c(Cl)cncc1Cl [Example 67, (R)-((1-(5-(5-(1-(3,5-dichloropyridin-4-yl)ethoxy)-6-fluoro-1H-indazol-3-yl)pyridin-2-yl)-3-methylazetidin-3-yl)methyl)dimethylphos-phine oxide] | 1 to 50 nM | 1 to 50 nM | 1 to 50 nM | 1 to 50 nM | 1 to 50 nM | 200 to 1000 nM | 0.1 to 50 nM | 0.1 to 50 nM
Cc1ncc(Cl)c([C@@H](C)Oc2ccc3[nH]nc(-c4ccc(N5CC(C)(NC6COC6)C5)nc4)c3c2)c1Cl [Example 70, 1-[5-[5-[(1R)-1-(3,5-dichloro-2-methyl-4-pyridyl)ethoxy]-1H-indazol-3-yl]-2-pyridyl]-3-methyl-N-(oxetan-3-yl)azetidin-3-amine] | 1 to 50 nM | 1 to 50 nM | 1 to 50 nM | 1 to 50 nM | 1 to 50 nM | 50 to 200 nM | 0.1 to 50 nM | 0.1 to 50 nM
Cc1ncc(Cl)c([C@@H](C)Oc2ccc3[nH]nc(-c4ccc(N5CC(C)(NC6CCC6)C5)nc4)c3c2)c1Cl [Example 71, N-cyclobutyl-1-[5-[5-[(1R)-1-(3,5-dichloro-2-methyl-4-pyridyl)ethoxy]-1H-indazol-3-yl]-2-pyridyl]-3-methyl-azetidin-3-amine] | 1 to 50 nM | 1 to 50 nM | 1 to 50 nM | 1 to 50 nM | 1 to 50 nM | 200 to 1000 nM | 50 to 200 nM | 0.1 to 50 nM
CCN(CC)C1(C)CN(c2ccc(-c3n[nH]c4ccc(O[C@H](C)c5c(Cl)cnc(C)c5Cl)cc34)cn2)C1 [Example 72, 1-[5-[5-[(1R)-1-(3,5-dichloro-2-methyl-4-pyridyl)ethoxy]-1H-indazol-3-yl]-2-pyridyl]-N,N-diethyl-3-methyl-azetidin-3-amine] | 1 to 50 nM | 1 to 50 nM | 1 to 50 nM | 1 to 50 nM | 1 to 50 nM | 200 to 1000 nM | 50 to 200 nM | 0.1 to 50 nM
COc1cc2[nH]nc(-c3ccc(N4CC(C)(N[C@@H]5CCOC5)C4)nc3)c2cc1O[C@H](C)c1c(Cl)cncc1Cl [Example 73, 1-(5-(5-((R)-1-(3,5-dichloropyridin-4-yl)ethoxy)-6-methoxy-1H-indazol-3-yl)pyridin-2-yl)-3-methyl-N-((R)-tetrahydrofuran-3-yl)azetidin-3-amine] | 1 to 50 nM | 1 to 50 nM | 1 to 50 nM | 1 to 50 nM | 1 to 50 nM | 0.1 to 50 nM | 0.1 to 50 nM | 0.1 to 50 nM
C[C@@H](Oc1ccc2[nH]nc(-c3ccc(N4CC(C)(CN(C)S(C)(=O)=O)C4)nc3)c2c1)c1c(Cl)cncc1Cl [Example 74, (R)-N-((1-(5-(5-(1-(3,5-dichloropyridin-4-yl)ethoxy)-1H-indazol-3-yl)pyridin-2-yl)-3-methylazetidin-3-yl)methyl)-N-methylmethanesulfona-mide] | 1 to 50 nM | 1 to 50 nM | 1 to 50 nM | 1 to 50 nM | 1 to 50 nM | 50 to 200 nM | 0.1 to 50 nM | 0.1 to 50 nM
C[C@@H](Oc1ccc2[nH]nc(-c3ccc(N4CC(C)(NCCO)C4)nc3)c2c1)c1c(Cl)cncc1Cl [Example 89, (R)-2-((1-(5-(5-(1-(3,5-dichloropyridin-4-yl)ethoxy)-1H-indazol-3-yl)pyridin-2-yl)-3-methylazetidin-3-yl)amino)ethan-1-ol] | 1 to 50 nM | 1 to 50 nM | 1 to 50 nM | 1 to 50 nM | 1 to 50 nM | 0.1 to 50 nM | 0.1 to 50 nM | 0.1 to 50 nM
C[C@H](O)CNC1(C)CN(c2ccc(-c3n[nH]c4ccc(O[C@H](C)c5c(Cl)cncc5Cl)cc34)cn2)C1 [Example 90, (S)-1-((1-(5-(5-((R)-1-(3,5-dichloropyridin-4-yl)ethoxy)-1H-indazol-3-yl)pyridin-2-yl)-3-methylazetidin-3-yl)amino)propan-2-ol] | 1 to 50 nM | 1 to 50 nM | 1 to 50 nM | 1 to 50 nM | 1 to 50 nM | 0.1 to 50 nM | 0.1 to 50 nM | 0.1 to 50 nM
C[C@@H](O)CNC1(C)CN(c2ccc(-c3n[nH]c4ccc(O[C@H](C)c5c(Cl)cncc5Cl)cc34)cn2)C1 [Example 91, (R)-1-((1-(5-(5-((R)-1-(3,5-dichloropyridin-4-yl)ethoxy)-1H-indazol-3-yl)pyridin-2-yl)-3-methylazetidin-3-yl)amino)propan-2-ol] | 1 to 50 nM | 1 to 50 nM | 1 to 50 nM | 1 to 50 nM | 1 to 50 nM | 0.1 to 50 nM | 0.1 to 50 nM | 0.1 to 50 nM

Source: patent publication US20250368666A1, “INDAZOLE COMPOUNDS” (TYRA BIOSCIENCES, INC., priority 2022, published 2025)
